Data from US20220289766A1 (INFLAZOME LIMITED, priority 2019, published 2022).
pIC50: −log10 of the molar value. Counter-ions that a name gives are not always drawn.

Legend:
[1] = target: T1, NLRP3 (Homo sapiens, UniProt Q96P20); assay: THP-1 cells pyroptosis assay; format: cell-based; set-up: Seed THP-1 cells (25,000 cells/well) containing 1.0 μg/ml LPS in 40 μl of RPMI medium; host or cells: THP-1 cells; conditions: LPS 1 μg/ml, compound 3 hrs, nigericin 5 μM 1 hr, resazurin readout
Method: THP-1 cells (ATCC #TIB-202) were grown in RPMI containing L-glutamine (Gibco #11835) supplemented with 1 mM sodium pyruvate (Sigma #S8636) and penicillin (100 units/ml)/streptomycin (0.1 mg/ml) (Sigma #P4333) in 10% Fetal Bovine Serum (FBS) (Sigma #F0804). The cells were routinely passaged and grown to confluency (˜10^6 cells/ml). On the day of the experiment, THP-1 cells were harvested and resuspended into RPMI medium (without FBS). The cells were then counted and viability ([…]) checked by Trypan blue (Sigma #T8154). Appropriate dilutions were made to give a concentration of 625,000 cells/ml. To this diluted cell solution was added LPS (Sigma #L4524) to give a 1 μg/ml Final Assay Concentration (FAC). 40 μl of the final preparation was aliquoted into each well of a 96-well plate. The plate thus prepared was used for compound screening.
The following method step-by-step assay was followed for compound screening. • 1. Seed THP-1 cells (25,000 cells/well) containing 1.0 μg/ml LPS in 40 μl of RPMI medium (without FBS) in 96-well, black walled, clear bottom cell culture plates coated with poly-D-lysine (VWR #734-0317) • 2. Add 5 μl compound (8 points half-log dilution, with 10 μM top dose) or vehicle (DMSO 0.1% FAC) to the appropriate wells • 3. Incubate for 3 hrs at 37° C., 5% CO2 • 4. Add 5 μl nigericin (Sigma #N7143) (FAC 5 μM) to all wells • 5. Incubate for 1 hr at 37° C., 5% CO2 • 6. At the end of the incubation period, spin plates at 300×g for 3 mins and remove supernatant • 7. Then add 50 μl of resazurin (Sigma #R7017) (FAC 100 μM resazurin in RPMI medium without FBS) and incubate plates for a further 1-2 hrs at 37° C. and 5% CO2 • 8. Plates were read in an Envision reader at Ex 560 nm and Em 590 nm • 9. IC50 data is fitted to a non-linear regression equation (log inhibitor vs response-variable slope 4-parameters)

[2] = target: T1, NLRP3; assay: Human whole blood IL-1β release assay; format: cell-based; set-up: Plate out 80 μl of whole blood containing 1 μg/ml of LPS in 96-well, clear bottom cell culture plate; from tissue; host or cells: human whole blood from healthy donors; conditions: LPS 1 μg/ml, compound 3 hrs, nigericin 10 μM 1 hr, IL-1β by AlphaLisa, read-out: HWB IC50
Method: For systemic delivery, the ability to inhibit NLRP3 when the compounds are present within the bloodstream is of great importance. For this reason, the NLRP3 inhibitory activity of a number of compounds in human whole blood was investigated in accordance with the following protocol.
Human whole blood in Li-heparin tubes was obtained from healthy donors from a volunteer donor panel. • 1. Plate out 80 μl of whole blood containing 1 μg/ml of LPS in 96-well, clear bottom cell culture plate (Corning #3585) • 2. Add 10 μl compound (8 points half-log dilution with 10 μM top dose) or vehicle (DMSO 0.1% FAC) to the appropriate wells • 3. Incubate for 3 hrs at 37° C., 5% CO2 • 4. Add 10 μl nigericin (Sigma #N7143) (10 μM FAC) to all wells • 5. Incubate for 1 hr at 37° C., 5% CO2 • 6. At the end of the incubation period, spin plates at 300×g for 5 mins to pellet cells and remove […] of supernatant and add to 96-well v-bottom plates for IL-1β analysis (note: these plates containing the supernatants can be stored at −80° C. to be analysed at a later date) • 7. IL-1β was measured according to the manufacturer protocol (Perkin Elmer-AlphaLisa IL-1 Kit AL220F-5000) • 8. IC50 data is fitted to a non-linear regression equation (log inhibitor vs response-variable slope 4-parameters)

T1 sequence (Q96P20 whole entry): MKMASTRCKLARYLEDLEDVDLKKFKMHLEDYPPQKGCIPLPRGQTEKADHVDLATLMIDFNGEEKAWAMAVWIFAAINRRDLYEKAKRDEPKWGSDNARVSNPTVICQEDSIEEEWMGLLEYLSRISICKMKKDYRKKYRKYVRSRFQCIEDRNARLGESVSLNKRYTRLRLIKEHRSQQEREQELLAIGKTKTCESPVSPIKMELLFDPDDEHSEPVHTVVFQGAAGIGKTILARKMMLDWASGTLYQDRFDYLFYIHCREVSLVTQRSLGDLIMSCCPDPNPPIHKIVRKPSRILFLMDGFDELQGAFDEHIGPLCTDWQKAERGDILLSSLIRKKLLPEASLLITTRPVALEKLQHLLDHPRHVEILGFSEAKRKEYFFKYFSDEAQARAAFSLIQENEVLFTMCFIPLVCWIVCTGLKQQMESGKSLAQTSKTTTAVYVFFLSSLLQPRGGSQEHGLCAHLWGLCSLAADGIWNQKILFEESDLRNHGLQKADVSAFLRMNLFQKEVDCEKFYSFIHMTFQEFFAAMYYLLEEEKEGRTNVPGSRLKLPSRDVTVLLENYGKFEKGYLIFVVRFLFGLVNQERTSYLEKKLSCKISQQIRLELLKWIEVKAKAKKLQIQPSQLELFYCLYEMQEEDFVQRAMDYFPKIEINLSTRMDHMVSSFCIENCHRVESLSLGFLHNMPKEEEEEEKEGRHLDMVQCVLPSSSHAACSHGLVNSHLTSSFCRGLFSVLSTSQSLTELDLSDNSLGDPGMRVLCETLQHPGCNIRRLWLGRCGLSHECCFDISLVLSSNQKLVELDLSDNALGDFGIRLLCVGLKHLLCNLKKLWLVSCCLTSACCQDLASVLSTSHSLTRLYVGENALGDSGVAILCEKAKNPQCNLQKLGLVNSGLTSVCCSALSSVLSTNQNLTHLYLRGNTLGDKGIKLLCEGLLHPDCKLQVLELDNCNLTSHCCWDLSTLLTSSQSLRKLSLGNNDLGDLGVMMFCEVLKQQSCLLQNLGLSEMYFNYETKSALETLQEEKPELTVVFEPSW

| SMILES | pIC50 [1] | pIC50 [2] |
| --- | --- | --- |
| Cc1cc2c(c3c1-c1ccnc(c1)OCCn1ccc(n1)S(=O)(=O)NC(=O)N3)CCC2 [Example 28, 3-methyl-21-oxa-14λ^6-thia-11,13,18,23,27-pentaazapentacyclo-[20.3.1.1^15,18.0^2,10.0^5,9]heptacosa-1(25),2(10),3,5(9),15(27),16,22(26),23-octaene-12,14,14-trione, sodium salt] | ≥ 7.00 | 6.30 to 7.00 |
| Cc1cc2c(c3c1-c1ccnc(c1)OCCCCCn1ccc(n1)S(=O)(=O)NC(=O)N3)CCC2 [Example 2, 3-methyl-24-oxa-14λ^6-thia-11,13,18,26,30-pentaaza-pentacyclo[23.3.1.1^15,18.0^2,10.0^5,9]-triaconta-1(29),2(10),3,5(9),15(30), 16,25,27-octaene-12,14,14-trione] | ≥ 7.00 | 6.00 to 6.30 |
| O=C1Nc2c(ccc3c2CCC3)-c2ccnc(c2)OCCCCCn2cc(cn2)S(=O)(=O)N1 [Example 6, 24-oxa-14λ^6-thia-11,13,17,18,26-pentaazapentacyclo-[23.3.1.1^15,18.0^2,10.0^5,9]triaconta-1(28),2,4,9,15(30),16,25(29),26-octaene-12,14,14-trione] | 6.30 to 7.00 | 5.30 to 6.00 |
| O=C1Nc2c(ccc3c2CCC3)-c2ccnc(c2)OCCCn2ccc(n2)S(=O)(=O)N1 [Example 7, 22-oxa-14λ^6-thia-11,13,18,24,28-pentaazapentacyclo-[21.3.1.1^15,18.0^2,10.0^5,9]octacosa-1(26),2,4,9,15(28),16,23(27),24-octaene-12,14,14-trione] | 6.00 to 6.30 | 6.00 to 6.30 |
| CN(C)Cc1cc2nn1CCCOc1cc(ccn1)-c1ccc3c(c1NC(=O)NS2(=O)=O)CCC3 [Example 22, 17-[(dimethylamino)-methyl]-22-oxa-14λ^6-thia-11,13,18,24,28-pentaazapentacyclo-[21.3.1.1^15,18.0^2,10.0^5,9]octacosa-1(26),2,4,9,15(28),16,23(27),24-octaene-12,14,14-trione] | 6.30 to 7.00 | 6.30 to 7.00 |
| O=C1Nc2c(ccc3c2CCC3)-c2ccnc(c2)OCCCn2cc(F)c(n2)S(=O)(=O)N1 [Example 23, 16-fluoro-22-oxa-14λ^6-thia-11,13,18,24,28-pentaazapentacyclo-[21.3.1.1^15,18.0^2,10.0^5,9]octacosa-1(26),2,4,9,15(28),16,23(27),24-octaene-12,14,14-trione] | 6.30 to 7.00 | 6.30 to 7.00 |
| O=C1Nc2c(ccc3c2CCC3)-c2ccnc(c2)OCCOCCn2ccc(n2)S(=O)(=O)N1 [Example 3, 21,24-dioxa-14λ^6-thia-11,13,18,26,30-pentaazapentacyclo-[23.3.1.1^15,18.0^2,10.0^5,9]triaconta-1(29),2(10),3,5(9),15(30),16,25,27-octaene-12,14,14-trione] | 6.30 to 7.00 | 6.30 to 7.00 |

More lines, now with the values ahead:

| pIC50 [1] | pIC50 [2] | SMILES |
| --- | --- | --- |
| ≥ 7.00 | 6.30 to 7.00 | CC1(C)COc2cc(ccn2)-c2c(F)cc3c(c2NC(=O)NS(=O)(=O)c2ccn1n2)CCC3 [Example 34, 3-fluoro-19,19-dimethyl-21-oxa-14λ^6-thia-11,13,18,23,27-pentaazapentacyclo-[20.3.1.1^15,18.0^2,10.0^5,9]heptacosa-1(25),2,4,9,15(27),16,22(26),23-octaene-12,14,14-trione] |
| 6.00 to 6.30 | 5.30 to 6.00 | Cc1cnc2cc1-c1ccc3c(c1NC(=O)NS(=O)(=O)c1ccn(n1)C(C)(C)CO2)CCC3 [Example 33, 19,19,25-trimethyl-21-oxa-14λ^6-thia-11,13,18,23,27-pentaaza-pentacyclo-[20.3.1.1^15,18.0^2,10.0^5,9]-heptacosa-1(26),2,4,9,15(27),16,22,24-octaene-12,14,14-trione, sodium salt] |
| 6.30 to 7.00 | 6.30 to 7.00 | CC(C)c1cc(F)cc2c1NC(=O)NS(=O)(=O)c1ccn(n1)C(C)(C)COc1cc-2ccn1 [Example 43, 4-fluoro-16,16-dimethyl-6-(propan-2-yl)-18-oxa-11λ^6-thia-8,10,15,20,24-pentaazatetracyclo-[17.3.1.1^12,15.0^2,7]tetracosa-1(22),2(7),3,5,12(24),13,19(23),20-octaene-9,11,11-trione] |
| 5.30 to 6.00 | 5.30 to 6.00 | O=C1Nc2c(ccc3c2CCC3)-c2ccnc(c2)OC2CCC(C2)Cn2ccc(n2)S(=O)(=O)N1 (stereo not shown) [Example 46, 24-oxa-14λ^6-thia-11,13,18,26,31-pentaazahexacyclo-[23.3.1.1^15,18.1^20,23.0^2,10.0^5,9]hentriaconta-1(28),2,4,9,15(31),16,25(29),26-octaene-12,14,14-trione] |
| ≥ 7.00 | 6.00 to 6.30 | Cc1cc2cc(n1)OCC(C)(C)n1ccc(n1)S(=O)(=O)NC(=O)Nc1c-2ccc2c1CCC2 [Example 36, 19,19,24-trimethyl-21-oxa-14λ^6-thia-11,13,18,23,27-pentaazapentacyclo-[20.3.1.1^15,18.0^2,10.0^5,9]heptacosa-1(26),2,4,9,15(27),16,22,24-octaene-12,14,14-trione] |
| ≥ 7.00 | 6.30 to 7.00 | O=C1Nc2c3c(cc(F)c2-c2ccnc(c2)OCCn2cc(F)c(n2)S(=O)(=O)N1)CCC3 [Example 40, 3,16-difluoro-21-oxa-14λ^6-thia-11,13,18,23,27-pentaaza-pentacyclo[20.3.1.1^15,18.0^2,10.0^5,9]-heptacosa-1(25),2(10),3,5(9),15(27),16,22(26),23-octaene-12,14,14-trione] |
| ≥ 7.00 | 6.30 to 7.00 | O=C1Nc2c(ccc3c2CCC3)-c2ccnc(c2)O[C@H]2COC[C@@H]2n2ccc(n2)S(=O)(=O)N1 (racemic) [Example 35, (anti)-21,24-dioxa-14λ^6-thia-11,13,18,26,30-pentaazahexacyclo-[23.3.1.1^15,18.0^2,10.0^5,9.0^19,23]-triaconta-1(28),2,4,9,15(30),16,25(29),26-octaene-12,14,14-trione] |
| ≥ 7.00 | 6.30 to 7.00 | CC1(C)COc2cc(ccn2)-c2c(F)cc3c(c2NC(=O)NS(=O)(=O)c2nn1cc2F)CCC3 [Example 41, 3,16-difluoro-19,19-dimethyl-21-oxa-14λ^6-thia-11,13,18,23,27-pentaazapentacyclo-[20.3.1.1^15,18.0^2,10.0^5,9]heptacosa-1(25),2,4,9,15(27),16,22(26),23-octaene-12,14,14-trione, sodium salt] |
| 6.00 to 6.30 | 6.00 to 6.30 | CC(C)c1cnn2c1NC(=O)NS(=O)(=O)c1nn(cc1F)C(C)(C)COc1cc-2ccn1 [Example 47, 12-fluoro-15,15-dimethyl-5-(propan-2-yl)-17-oxa-10λ^6-thia-2,3,7,9,14,19,23-heptaazatetracyclo-[16.3.1.1^11,14.0^2,6]tricosa-1(21),3,5,11(23),12,18(22),19-heptaene-8,10,10-trione] |
| ≥ 7.00 | 6.30 to 7.00 | CC(C)c1cc(F)cc2c1NC(=O)NS(=O)(=O)c1nn(cc1F)C(C)(C)COc1cc-2ccn1 [Example 30, 4,13-difluoro-16,16-dimethyl-6-(propan-2-yl)-18-oxa-11λ^6-thia-8,10,15,20,24-pentaazatetracyclo-[17.3.1.1^12,15.0^2,7]tetracosa-1(22),2(7),3,5,12(24),13,19 (23),20-octaene-9,11,11-trione, sodium salt] |
